# Results published in patent publication US10658848B2, “Materials for use with aqueous redox flow batteries and related methods and systems” (Massachusetts Institute of Technology, priority 2014, dated 2020).
# Marks after values point to notes of the source that are not given here.
# Assay: Qualitative cyclic voltammetry of quinoxaline electrolytes
# Type: physicochemical
# Protocol: Quinoxaline electrochemical behavior was characterized in a number of aqueous electrolytes. […] All electrochemical measurements presented in this paper were performed using a Biologic VSP-300 potentiostat. Glassy carbon electrodes were used as working electrodes in voltammetry experiments and were polished using 0.05 μm alumina suspension before performing a new set of measurements. Solution resistances were measured prior to electrochemical experiments to be 5Ω. Due to small peak currents during CV (less than 1 mA), the maximum estimated iR drop was 5 mV. During qualitative CV experiments, a 75% solution resistance compensation (iR correction) was applied during the experiment to ensure high quality data in untested systems. Quantitative CV techniques were carried with no iR correction as the small potential offset was unlikely to affect experimental results. Additionally, no iR correction was applied during RDV experiments because analyses only considered the limiting RDV current, which is unaffected by ohmic losses. All potentials given herein are presented versus the reversible hydrogen electrode (RHE), unless otherwise stated. Experimental potentials were determined versus a calibrated Ag/AgCl reference electrode and converted to potentials versus RHE using the […] equation and the pH of the solution, measured with a pH meter. All currents utilized in quantitative calculations were background corrected, assuming the background current was composed of non-faradaic, hydrogen evolution reaction and oxygen reduction reaction currents. Qualitative CV experiments were carried out in a three-electrode cell with a 0.3 cm diameter glassy carbon electrode (0.071 cm^2, CH Instruments), a platinum (Pt) wire counter electrode (CH Instruments) and a Ag/AgCl (3 M NaCl, BASi Inc.) reference electrode. […] Three-electrode cells were filled with 10 mL of solution, and the solution was bubbled with argon at a rate of 50 mL/min for 10 min prior to experiments. The argon bubbling tube was then adjusted such that it provided a blanket of argon gas over the surface of the solution. Then, ten cycles of CV were recorded at a scan rate of 100 mV/s. […] A linear slope to the front of an anodic peak (ma) and cathodic peak (mc) was estimated as a rough indicator of the overall reaction rate of either the forward or backward reaction, combining effects of both reaction kinetics and mass-transport. Achieving a slope ratio (ma/mc) of one, indicates an equally fast forward and backward overall reaction rate.
# [1] = 0.45M Li2SO4/0.1M LiOH, pH 12.2
# [2] = 0.495M K2SO4/0.01M KOH, pH 11.8
# [3] = 0.495M Li2SO4/0.01M LiOH, pH 12.0
# [4] = 0.5M K2SO4, pH 8.9, considerable degradation
# [5] = 0.9M NaC2H3O2/0.1M NaOH, pH 12.7
# [6] = 0.99M LiNO3/0.01M LiOH, pH 11.3
# [7] = 0.99M NaC2H3O2/0.01M NaOH, pH 11.8
# [8] = 0.99M NaHCO3/0.01M NaOH, pH 8.7
# [9] = 0.99M NaNO3/0.01M NaOH, pH 11.6
# [10] = 1M KNO3, pH 7.2, significant hydrogen evolution reaction current
# [11] = 1M LiCl, pH 3.8, considerable degradation
# [12] = 1M LiNO3, pH 6.0, significant hydrogen evolution reaction current
# [13] = 1M NaHCO3, pH 8.7, considerable degradation
smiles,measurement,setting,value
c1ccc2nccnc2c1 [quinoxaline],E° vs. RHE,"0.45M K2SO4/0.1M KOH, pH 12.8",−0.50 V
same,"ipa, 10/ipa, 2","0.45M K2SO4/0.1M KOH, pH 12.8",0.99
same,"ipc, 10/ipc, 2","0.45M K2SO4/0.1M KOH, pH 12.8",0.97
same,ma/mc,"0.45M K2SO4/0.1M KOH, pH 12.8",0.51
same,"ΔEpp, 10/ΔEpp, 2","0.45M K2SO4/0.1M KOH, pH 12.8",1.05
same,E° vs. RHE,[1],−0.52 V
same,"ipa, 10/ipa, 2",[1],1.00
same,"ipc, 10/ipc, 2",[1],0.99
same,ma/mc,[1],0.46
same,"ΔEpp, 10/ΔEpp, 2",[1],1.02
same,E° vs. RHE,[2],−0.51 V
same,"ipa, 10/ipa, 2",[2],0.98
same,"ipc, 10/ipc, 2",[2],0.95
same,ma/mc,[2],0.64
same,"ΔEpp, 10/ΔEpp, 2",[2],1.08
same,E° vs. RHE,[3],−0.52 V
same,"ipa, 10/ipa, 2",[3],0.96
same,"ipc, 10/ipc, 2",[3],0.95
same,ma/mc,[3],0.55
same,"ΔEpp, 10/ΔEpp, 2",[3],1.06
same,E° vs. RHE,[4],−0.90 ^‡ V
same,"ipc, 10/ipc, 2",[4],0.45 ^‡
same,ma/mc,[4],0.91 ^‡
same,"ΔEpp, 10/ΔEpp, 2",[4],2.16 ^‡
same,E° vs. RHE,"0.5M Li2SO4, pH 6.6, considerable degradation",−0.81 ^‡ V
same,E° vs. RHE,"0.9M KCl/0.1M KOH, pH 12.8",−0.45 V
same,"ipa, 10/ipa, 2","0.9M KCl/0.1M KOH, pH 12.8",0.99
same,"ipc, 10/ipc, 2","0.9M KCl/0.1M KOH, pH 12.8",0.96
same,ma/mc,"0.9M KCl/0.1M KOH, pH 12.8",0.46
same,"ΔEpp, 10/ΔEpp, 2","0.9M KCl/0.1M KOH, pH 12.8",1.05
same,E° vs. RHE,"0.9M KNO3/0.1M KOH, pH 12.8",−0.50 V
same,"ipa, 10/ipa, 2","0.9M KNO3/0.1M KOH, pH 12.8",0.99
same,"ipc, 10/ipc, 2","0.9M KNO3/0.1M KOH, pH 12.8",0.98
same,ma/mc,"0.9M KNO3/0.1M KOH, pH 12.8",0.53
same,"ΔEpp, 10/ΔEpp, 2","0.9M KNO3/0.1M KOH, pH 12.8",1.03
same,E° vs. RHE,"0.9M LiCl/0.1M LiOH, pH 12.1",−0.53 V
same,"ipa, 10/ipa, 2","0.9M LiCl/0.1M LiOH, pH 12.1",1.00
same,"ipc, 10/ipc, 2","0.9M LiCl/0.1M LiOH, pH 12.1",0.99
same,ma/mc,"0.9M LiCl/0.1M LiOH, pH 12.1",0.51
same,"ΔEpp, 10/ΔEpp, 2","0.9M LiCl/0.1M LiOH, pH 12.1",1.04
same,E° vs. RHE,"0.9M LiNO3/0.1M LiOH, pH 12.1",−0.48 V
same,"ipa, 10/ipa, 2","0.9M LiNO3/0.1M LiOH, pH 12.1",0.99
same,"ipc, 10/ipc, 2","0.9M LiNO3/0.1M LiOH, pH 12.1",0.95
same,ma/mc,"0.9M LiNO3/0.1M LiOH, pH 12.1",0.51
same,"ΔEpp, 10/ΔEpp, 2","0.9M LiNO3/0.1M LiOH, pH 12.1",1.10
same,E° vs. RHE,[5],−0.51 V
same,"ipa, 10/ipa, 2",[5],1.00
same,"ipc, 10/ipc, 2",[5],0.97
same,ma/mc,[5],0.46
same,"ΔEpp, 10/ΔEpp, 2",[5],1.04
same,E° vs. RHE,"0.9M NaHCO3/0.1M NaOH, pH 9.1",−0.53 V
same,"ipa, 10/ipa, 2","0.9M NaHCO3/0.1M NaOH, pH 9.1",0.82
same,"ipc, 10/ipc, 2","0.9M NaHCO3/0.1M NaOH, pH 9.1",0.78
same,ma/mc,"0.9M NaHCO3/0.1M NaOH, pH 9.1",1.63
same,"ΔEpp, 10/ΔEpp, 2","0.9M NaHCO3/0.1M NaOH, pH 9.1",1.56
same,E° vs. RHE,"0.9M NaNO3/0.1M NaOH, pH 12.5",−0.52 V
same,"ipa, 10/ipa, 2","0.9M NaNO3/0.1M NaOH, pH 12.5",0.98
same,"ipc, 10/ipc, 2","0.9M NaNO3/0.1M NaOH, pH 12.5",0.98
same,ma/mc,"0.9M NaNO3/0.1M NaOH, pH 12.5",0.50
same,"ΔEpp, 10/ΔEpp, 2","0.9M NaNO3/0.1M NaOH, pH 12.5",1.07
same,"ip,a","0.99 M KCl/0.01 M KOH, across all cycles",0.12 mA
same,E° vs. RHE,"0.99M KCl/0.01M KOH, pH 11.8",−0.48 V
same,"ipa, 10/ipa, 2","0.99M KCl/0.01M KOH, pH 11.8",1.00
same,"ipc, 10/ipc, 2","0.99M KCl/0.01M KOH, pH 11.8",0.97
same,ma/mc,"0.99M KCl/0.01M KOH, pH 11.8",0.59
same,"ΔEpp, 10/ΔEpp, 2","0.99M KCl/0.01M KOH, pH 11.8",1.02
same,E° vs. RHE,"0.99M KNO3/0.01M KOH, pH 11.7",−0.52 V
same,"ipa, 10/ipa, 2","0.99M KNO3/0.01M KOH, pH 11.7",1.00
same,"ipc, 10/ipc, 2","0.99M KNO3/0.01M KOH, pH 11.7",0.97
same,ma/mc,"0.99M KNO3/0.01M KOH, pH 11.7",0.64
same,"ΔEpp, 10/ΔEpp, 2","0.99M KNO3/0.01M KOH, pH 11.7",1.01
same,E° vs. RHE,"0.99M LiCl/0.01M LiOH, pH 11.4",−0.52 V
same,"ipa, 10/ipa, 2","0.99M LiCl/0.01M LiOH, pH 11.4",0.99
same,"ipc, 10/ipc, 2","0.99M LiCl/0.01M LiOH, pH 11.4",0.96
same,ma/mc,"0.99M LiCl/0.01M LiOH, pH 11.4",0.63
same,"ΔEpp, 10/ΔEpp, 2","0.99M LiCl/0.01M LiOH, pH 11.4",1.05
same,E° vs. RHE,[6],−0.47 V
same,"ipa, 10/ipa, 2",[6],0.98
same,"ipc, 10/ipc, 2",[6],0.95
same,ma/mc,[6],0.67
same,"ΔEpp, 10/ΔEpp, 2",[6],1.08
same,E° vs. RHE,[7],−0.52 V
same,"ipa, 10/ipa, 2",[7],1.01
same,"ipc, 10/ipc, 2",[7],0.97
same,ma/mc,[7],0.58
same,"ΔEpp, 10/ΔEpp, 2",[7],1.06
same,E° vs. RHE,[8],−0.53 V
same,"ipa, 10/ipa, 2",[8],0.06
same,"ipc, 10/ipc, 2",[8],0.50
same,ma/mc,[8],1.61
same,"ΔEpp, 10/ΔEpp, 2",[8],2.90
same,E° vs. RHE,[9],−0.52 V
same,"ipa, 10/ipa, 2",[9],1.00
same,"ipc, 10/ipc, 2",[9],0.96
same,ma/mc,[9],0.61
same,"ΔEpp, 10/ΔEpp, 2",[9],1.04
same,"ip,a","1 M KCl, cycle 2",0.11 mA
same,"ip,a","1 M KCl, cycle 10",0.06 mA
same,E° vs. RHE,"1M KCl, pH 5.4",−0.80 V
same,"ipa, 10/ipa, 2","1M KCl, pH 5.4",0.57
same,"ipc, 10/ipc, 2","1M KCl, pH 5.4",0.56
same,ma/mc,"1M KCl, pH 5.4",0.75
same,"ΔEpp, 10/ΔEpp, 2","1M KCl, pH 5.4",1.85
same,E° vs. RHE,[10],−0.76 ^† V
same,"ipa, 10/ipa, 2",[10],0.91 ^†
same,"ipc, 10/ipc, 2",[10],1.01 ^†
same,ma/mc,[10],1.51 ^†
same,"ΔEpp, 10/ΔEpp, 2",[10],1.04 ^†
same,peak separation,"1 M KOH, 1 M NaOH, or 1 M LiOH",~150 mV
same,E° vs. RHE,"1M KOH, pH 13.7",−0.48 V
same,"ipa, 10/ipa, 2","1M KOH, pH 13.7",0.98
same,"ipc, 10/ipc, 2","1M KOH, pH 13.7",0.97
same,ma/mc,"1M KOH, pH 13.7",0.42
same,"ΔEpp, 10/ΔEpp, 2","1M KOH, pH 13.7",1.04
same,E° vs. RHE,[11],−0.94 ^‡ V
same,"ipc, 10/ipc, 2",[11],0.08 ^‡
same,ma/mc,[11],0.96 ^‡
same,"ΔEpp, 10/ΔEpp, 2",[11],2.95 ^‡
same,E° vs. RHE,[12],−0.75 ^† V
same,"ipa, 10/ipa, 2",[12],0.80 ^†
same,"ipc, 10/ipc, 2",[12],0.91 ^†
same,ma/mc,[12],1.94 ^†
same,"ΔEpp, 10/ΔEpp, 2",[12],1.11 ^†
same,E° vs. RHE,"1M LiOH, pH 12.7",−0.55 V
same,"ipa, 10/ipa, 2","1M LiOH, pH 12.7",0.98
same,"ipc, 10/ipc, 2","1M LiOH, pH 12.7",0.96
same,ma/mc,"1M LiOH, pH 12.7",0.45
same,"ΔEpp, 10/ΔEpp, 2","1M LiOH, pH 12.7",1.00
same,E° vs. RHE,"1M NaC2H3O2, pH 8.6, two distinct reduction and oxidation peaks",−0.68 * V
same,E° vs. RHE,[13],−0.53 ^‡ V
same,ma/mc,[13],1.51 ^‡
same,E° vs. RHE,"1M NaNO3, pH 6.8",−0.77 V
same,"ipa, 10/ipa, 2","1M NaNO3, pH 6.8",0.12
same,"ipc, 10/ipc, 2","1M NaNO3, pH 6.8",0.46
same,ma/mc,"1M NaNO3, pH 6.8",0.82
same,"ΔEpp, 10/ΔEpp, 2","1M NaNO3, pH 6.8",1.78
same,E° vs. RHE,"1M NaOH, pH 13.8",−0.48 V
same,"ipa, 10/ipa, 2","1M NaOH, pH 13.8",0.99
same,"ipc, 10/ipc, 2","1M NaOH, pH 13.8",0.98
same,ma/mc,"1M NaOH, pH 13.8",0.46
same,"ΔEpp, 10/ΔEpp, 2","1M NaOH, pH 13.8",1.01
same,peak separation,"KCl electrolyte with 0.01 M KOH, cycle 2",230 mV
same,peak separation,"KCl electrolyte with 0.1 M KOH, cycle 2",200 mV
same,ratio of charge transferred between the cathodic and anodic scans,"all electrolytes with pH≥11.4, within a particular CV cycle",exceeded 0.9
same,redox potential E° vs. RHE,cases where quinoxaline exhibited stable performance over multiple CV cycles,≈ −0.5 V
same,redox potential E° vs. RHE,"electrolytes where degradation of quinoxaline was observed, not indicators of the actual redox potential",≤ −0.75 V
same,peak separation,"sulfate and chloride anions, at 0.01 M OH^−",< 220 mV
same,peak separation,"sulfate and chloride anions, at 0.1 M OH^−",< 200 mV
